{"source": "patent US20210212947A1", "about": "“Docetaxel palmitate liposome and preparation method thereof” (SHANGHAI WEI ER BIOPHARMACEUTICAL TECH CO., LTD., priority 2018, published 2021)", "origin": "cited, not measured here", "key": {"[1]": {"conditions": "times that of paclitaxel"}}}
{"smiles": "CC(=O)OC12COC1CC(O)C1(C)C(=O)C(O)C3=C(C)C(OC(=O)C(O)C(NC(=O)OC(C)(C)C)c4ccccc4)CC(O)(C(OC(=O)c4ccccc4)C21)C3(C)C", "note": "(stereo not drawn) [Docetaxel, [2aR-(2aα,4β,4aβ,6β,9α(aR*,βS*),11a,12a,12aα,12bα)]-β-[[(1,1dimethylethyl (Oxy)carbonyl]amino]-α-hydroxyphenylpropionic acid [12b-acetoxy-12-benzoyloxy-2a,3,4,4a,5,6,9,10,11,12,12a,12b -Dodecahydro-4,6,11-trihydroxy-4a,8,13,13-tetramethyl-5-oxo-7,11-methylene-1H-cyclodecpentaeno [3,4]Benzo [1,2-b]oxetane-9-yl]ester]", "values": [{"measurement": "solubility in organic solvents", "setting": "organic solvents such as ethanol, acetone, ether and benzene", "value": "soluble"}, {"measurement": "solubility in water", "setting": "water", "value": "insoluble"}, {"measurement": "anti-tumor activity relative to paclitaxel", "setting": "[1]", "value": "1.3-12 times"}]}
